# In US6747021B2, “Cryptophycin compound” (Eli Lilly and Company, priority 2000, dated 2004):
# What was measured:
# [1] = test system: HUMAN COLON ADENOCARCINOMA 15; assay type: in vivo; conditions: IV 9.5 mg/kg/inj QD 3-11; total dose 85.5 mg/kg; Balb/C SCID female mice
# Text: (§1) Inhibition of tumors transplanted into mice is an accepted procedure for studying the efficacy of antitumor agents (Corbett, et al., In vivo Methods for Screening and Preclinical Testing; Use of rodent solid tumors for drug discovery., In: Anticancer Drug Development Guide: Preclinical Screening, Clinical Trials, and Approval, B. Teicher (ed), Humana Press Inc., Totowa, N.J., Chapter 5, pages 75-99 (1997); (Corbett, et al., Int. J. Pharmacog., 33, Supplement, 102-122 (1995)). Murine tumors or human xenographs were implanted essentially as described by Corbett in In vivo Methods for Screening and Preclinical Testing; Use of rodent solid tumors for drug discovery. Briefly, the murine tumor or human xenograph was implanted subcutaneously using either 12-gauge trocar implants or counted number of cells. The location for the trocar insertion is midway between the axillary and inguinal region along the side of the mouse. The trocar is slipped approximately ¾ of an inch subcutaneously up toward the axilla before discharging the tumor fragment, and pinching the skin as the trocar is removed. Alternatively, human tumor cells prepared from a […] of donor tumors (5×10^6 cells) were implanted subcutaneously in a hind-leg of a male or female nude mouse (Charles River). Either a test compound in vehicle or vehicle alone was administered by intravenous bolus injection (iv), intraperitoneal injection (ip), or oral gavage (po). Each treatment group, as well as a group of untreated control animals, consisted of five animals per group in each experiment. Subcutaneous tumor response was monitored by tumor volume measurement performed twice each week over the course of the experiment (60-120 days). Body weights were taken as a general measure of toxicity. The subcutaneous tumor data were analyzed by determining the median tumor weight for each treatment group over the course of the experiment and calculating the tumor growth delay as the difference in days for the treatment versus the control tumors to reach a volume of either 500 or 1000 mm^3.
# (§2) Cryptophycin-309 (309) was tested against a variety of murine and human tumors substantially as described supra. Cryptophycin-55 glycinate (55-GLY), Taxol, and Adriamycin (Adria) were also included in certain tests for purposes of comparison. Cryptophycin 55 glycinate is known in the art (WO 98/08505, Example 9) and has the following structure: [drawing 9]
# (§3) Tumor Weight(mg)=(a×b^2)/2 where a=tumor length (mm) and b=tumor width (mm).
# (§4) Tumor Growth Delay=T−C where T is the median time (days) required for the treatment group tumors to reach a predetermined size, and C is the median time (days) for the control group tumors to reach the same size. Tumor-free survivors are excluded from this calculation, and are tabulated separately (Tumor Free).
# (§5) Log Kill=Tumor Growth Delay/(3.32)(Td)
# (§6) where Tumor Growth Delay is as previously defined and Td is tumor volume doubling time (days), estimated from the best fit straight line from a log-linear growth plot of the control group of tumors in exponential growth (100-800 mg range)
# (§7) %T/C mass—The treatment and control groups are measured when the control group tumors reach approximately 700 to 1200 mg in size (median group). The median tumor weight of each group is determined (including zeros). The T/C value in percent is an indication of antitumor effectiveness. A T/C≦42% is considered significant antitumor activity. A T/C<10% is considered to indicate highly significant antitumor activity.
# (§8) Body Weight Loss Nadir—A body weight loss nadir (mean of group) of greater than 20% or drug deaths greater than 20% are considered to indicate an excessively toxic dosage in single course trials.
# (§9) Activity Rating—the Activity Rating is derived from the Log Kill according to the following table: […]
# HUMAN COLON ADEN[…]-116 = test: Early stage human colon adenocarcinoma HCT-116 xenograft assay; assay type: in vivo; conditions: IV 9 mg/kg/inj QD 3-10; total dose 72 mg/kg; Balb/C SCID female mice
# Text: as §1, §2, §3, §4, §5, §6, §7, §8, §9
# [2] = test system: COLON ADENOCARCINOMA-26/A; assay type: in vivo, murine; conditions: IV 10 mg/kg/inj QD 1-7, 9; total dose 80 mg/kg; Balb/C female mice
# Text: as §1, §2, §3, §4, §5, §6, §7, §8, §9
# [3] = test system: MAMMARY ADENOCARCINOMA 16/C; assay type: in vivo, murine; conditions: IV 8 mg/kg/inj QD 3-11; total dose 72 mg/kg; C3H/HeN female mice
# Text: as §1, §2, §3, §4, §5, §6, §7, §8, §9
# [4] = test system: PANCREATIC DUCTAL ADENOCARCINOMA #02; assay type: in vivo, murine; conditions: IV 8 mg/kg/inj QD 1-8; total dose 64 mg/kg; BDF1 female mice; experiment #
# Text: as §1, §2, §3, §4, §5, §6, §7, §8, §9
# [5] = test system: COLON ADENOCARCINOMA 51/A; test: Early stage murine colon adenocarcinoma 51/A subcutaneous tumor assay; assay type: in vivo; conditions: IV 10 mg/kg/inj QD 1-8; total dose 80 mg/kg; CDF female mice
# Text: as §1, §2, §3, §4, §5, §6, §7, §8, §9
# [6] = test system: MAMMARY ADENOCARCINOMA-16/C/Adr; test: Early stage murine mammary adenocarcinoma-16/C/Adr subcutaneous tumor assay; assay type: in vivo; conditions: IV 10 mg/kg/inj QD 1-7; total dose 70 mg/kg; C3H female mice
# Text: as §1, §2, §3, §4, §5, §6, §7, §8, §9
structure (smiles),measurement,setting,value
CC(=O)O[C@H]1C(=O)[C@@]2(C)[C@H]([C@H](OC(=O)c3ccccc3)[C@]3(O)C[C@H](OC(=O)[C@H](O)[C@@H](NC(=O)c4ccccc4)c4ccccc4)C(C)=C1C3(C)C)[C@]1(OC(C)=O)CO[C@@H]1C[C@@H]2O [Taxol],% T/C MASS,[1],67%
same,DRUG DEATHS,[1],0/5
same,GROWTH DELAY,[1],3.5 days
same,LOG KILL,[1],0.4
same,MEDIAN TUMOR WEIGHT,[1],1044 mg
same,% T/C MASS,HUMAN COLON ADEN[…]-116,11%
same,ACTIVITY RATING,HUMAN COLON ADEN[…]-116,+++ (2.0-2.8)
same,DRUG DEATHS,HUMAN COLON ADEN[…]-116,0/5
same,GROWTH DELAY,HUMAN COLON ADEN[…]-116,17 days
same,LOG KILL,HUMAN COLON ADEN[…]-116,2.0
same,MEDIAN TUMOR WEIGHT,HUMAN COLON ADEN[…]-116,126 mg
same,% T/C MASS,[2],57%
same,DRUG DEATHS,[2],0/5
same,LOG KILL,[2],None
same,MEDIAN TUMOR WEIGHT,[2],516 mg
same,% T/C MASS,[3],0%
same,ACTIVITY RATING,[3],++++ (>2.8)
same,DRUG DEATHS,[3],0/5
same,GROWTH DELAY,[3],12.5 days
same,LOG KILL,[3],2.9
same,MEDIAN TUMOR WEIGHT,[3],0 mg
same,% T/C MASS,[4],79%
same,DRUG DEATHS,[4],0/5
same,GROWTH DELAY,[4],1 days
same,LOG KILL,[4],0.1
same,MEDIAN TUMOR WEIGHT,[4],1296 mg
same,% T/C MASS,[5],25%
same,ACTIVITY RATING,[5],+ (0.7-1.2)
same,DRUG DEATHS,[5],0/6
same,GROWTH DELAY,[5],5.6 days
same,LOG KILL,[5],0.7
same,MEDIAN TUMOR WEIGHT,[5],288 mg
same,DRUG DEATHS,[6],0/5
same,LOG KILL,[6],None
same,MEDIAN TUMOR WEIGHT,[6],1198 mg
